Assay [1] concerns the target GST(1-218)-(FACTOR_XA)-hsBCLXL(2-209) (Homo sapiens (Human), UniProt Q07817). Description: Fluorescence polarisation assay. Type of assay: binding. Here is the method: Fluorescence polarization measures the rotation of a fluorescing species in solution, the larger the molecule the more polarized the fluorescence emission.
(GST UniProtKB® primary accession number P08515 and BCLXL UniProtKB® primary accession number Q07817-1), • resulting in an increase in anisotropy. If a compound is added which competitively binds to the same site as the probe, thereby releasing it, anisotropy decreases due to the increased amount of free probe.
An 11-point serial dilution of each compound was prepared in DMSO, the final buffer conditions were 10 mM 4-(2-hydroxyethyl)-1-piperazineethanesulfonic acid [HEPES], 150 mM NaCl, 0.05% Tween 20, pH 7.4 and 5% DMSO. The final protein concentration in the assay was 20 nM with the fluorescent probe present at 10 nM. […] 1; 37 (WebServer issue): W441-W445.

For assay [2], the target named is His-His-(EK)-hsBCLXL(2-197)[N197C] (Homo sapiens (Human), UniProt Q07817, N197C). Description: Fluorescence quenching assay. Type of assay: binding. The conditions noted are these: 1 nM Cy5-labelled protein, 400 nM PUMA peptide, 2 hours at 23° C.; KI determined from IC50. Put shortly: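 Ki values converted from IC50s, measured as fluorescence increase (Ex 620/Em 680 nm) after 2 h at 23° C. Compounds were titrated over 11 points against 1 nM Cy5-BCL-xL and 400 nM quencher-tagged PUMA peptide in pH 7.4 HEPES (10 mM), 150 mM NaCl, 0.05% Tween 20, 5% DMSO.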
His-His-(EK)-hsBCLXL(2-197)[N197C], sequence (Q07817 2-197 N197C): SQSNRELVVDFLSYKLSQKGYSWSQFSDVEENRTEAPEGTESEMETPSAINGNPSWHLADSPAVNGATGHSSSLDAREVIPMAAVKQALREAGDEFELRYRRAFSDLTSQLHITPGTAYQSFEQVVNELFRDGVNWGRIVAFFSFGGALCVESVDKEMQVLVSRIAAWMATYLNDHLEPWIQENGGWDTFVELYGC

A further assay relates to H146 cells. Briefly: H146 cell viability using MTT assay. The format is cell-based. The conditions noted are these: Homo sapiens, NCI-H146, 48 h exposure. The method, then:
MTT colorimetric assay is based on the mitochondrial reduction of tetrazolium salt by living cells. The viable cell number is proportional to the production of formazan salts, which can be read spectrophotometrically at 540 nm.
MOLT-4 and H146 cells were purchased from ATCC and cultivated in RPMI 1640 supplemented with 10% heat inactivated fetal bovine serum, penicillin (100 IU/ml), streptomycin (100 μg/ml) and L-glutamine (2 mM). Cells were cultured at 37° C. in a humidified atmosphere containing 5% CO2. Cells were seeded in 96 microwell plates (150p per well) and exposed to the compounds for 48 h (3.16 fold serially diluted; 9 concentrations each, triplicates). At the end of incubation time, 15 μL of MTT solution (5 mg/ml) were added per well and the cells were incubated for another 4 h. Then, 100 μL of 10% Sodium Dodecyl Sulfate (SDS)/HCl 10 mM were added per well and the plate was incubated overnight, before measurement of optical density at 540 nm. IC50s were calculated using standard four-parametric curve fitting.
In general terms: Formazan colour is commonly taken as a measure of viable cells.

Another assay concerns MOLT-4 cells. Briefly: MOLT-4 cell viability using MTT assay. The format is cell-based. The conditions noted are these: Homo sapiens, MOLT-4, 48 h, 48 h exposure. The method, then:
MTT colorimetric assay is based on the mitochondrial reduction of tetrazolium salt by living cells.
Cells were cultured at 37° C. in a humidified atmosphere containing 5% CO2. […] At the end of incubation time, 15 μL of MTT solution (5 mg/ml) were added per well and the cells were incubated for another 4 h. […] IC50s were calculated using standard four-parametric curve fitting.

The term Ki denotes a dissociation constant, usually derived from enzyme kinetics or from competition with a known ligand. The IC50 is the concentration that gives 50% inhibition. Low readings indicate greater potency in that assay, high ones weaker potency in that assay.

The structures appear in SMILES notation.

GST(1-218)-(FACTOR_XA)-hsBCLXL(2-209), sequence (Q07817 other isoform, or with tags, fused parts or gaps): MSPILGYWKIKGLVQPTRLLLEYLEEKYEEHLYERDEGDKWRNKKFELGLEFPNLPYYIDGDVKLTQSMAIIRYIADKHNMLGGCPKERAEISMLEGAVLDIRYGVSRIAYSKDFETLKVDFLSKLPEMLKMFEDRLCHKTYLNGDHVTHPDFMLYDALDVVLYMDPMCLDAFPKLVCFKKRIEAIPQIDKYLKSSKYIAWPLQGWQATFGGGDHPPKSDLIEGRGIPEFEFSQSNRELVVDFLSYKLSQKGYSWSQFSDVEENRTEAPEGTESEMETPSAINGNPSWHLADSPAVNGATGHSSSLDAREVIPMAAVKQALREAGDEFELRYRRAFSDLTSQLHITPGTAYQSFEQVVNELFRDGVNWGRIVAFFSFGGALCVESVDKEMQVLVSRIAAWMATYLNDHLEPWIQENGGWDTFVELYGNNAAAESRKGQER

Molecule `O=C(O)c1csc(N2CCCc3cc(Nc4nc5ccccc5s4)ccc32)n1` [Example 1, 2-{6-[(1,3-Benzothiazol-2-yl)amino]-1,2,3,4-tetrahydroquinolin-1-yl}-1,3-thiazole-4-carboxylic acid] displayed an inhibition constant (Ki) in assay [1] of 37000 nM.

As to `O=C(O)c1csc(-n2ccc3cc(Nc4nc5ccccc5s4)ccc32)n1` [Example 2, 2-{5-[(1,3-Benzothiazol-2-yl)amino]-1H-indol-1-yl}-1,3-thiazole-4-carboxylic acid], the Ki in assay [1] was over 10000 nM.

In turn, `O=C(O)c1csc(N2CCc3cc(Nc4nc5ccccc5s4)ccc32)n1` [Example 3, 2-{5-[(1,3-Benzothiazol-2-yl)amino]-2,3-dihydro-1H-indol-1-yl}-1,3-thiazole-4-carboxylic acid] yielded a Ki in assay [1] of 36000 nM.

`O=C(O)c1csc(N2CCOc3cc(Nc4nc5ccccc5s4)ccc32)n1` [Example 4, 2-{7-[(1,3-Benzothiazol-2-yl)amino]-3,4-dihydro-2H-1,4-benzoxazin-4-yl}-1,3-thiazole-4-carboxylic acid] displayed a Ki in assay [1] of over 10000 nM.

Take `O=C(O)c1cccc(-n2ccc3cc(Nc4nc5ccccc5s4)ccc32)n1` [Example 5, 6-{5-[(1,3-Benzothiazol-2-yl)amino]-1H-indol-1-yl}pyridine-2-carboxylic acid]: in assay [1], the Ki is over 10000 nM.

`O=C(O)c1csc(-n2ccc3cc(Nc4nc5ccccc5s4)cnc32)n1` [Example 6, 2-{5-[(1,3-Benzothiazol-2-yl)amino]-1H-pyrrolo[2,3-b]pyridin-1-yl}-1,3-thiazole-4-carboxylic acid]: the Ki in assay [1] is over 10000 nM.

With `O=C(O)c1csc(-n2ccc3cc(Nc4nc5ccccc5s4)ncc32)n1` [Example 7, 2-{5-[(1,3-Benzothiazol-2-yl)amino]-1H-pyrrolo[2,3-c]pyridin-1-yl}-1,3-thiazole-4-carboxylic acid], affinity in assay [1] was put at a Ki of 9900 nM.

`O=C(O)c1csc(-n2ccc3cc(Nc4nc5ccccc5s4)nnc32)n1` [Example 8, 2-{3-[(1,3-Benzothiazol-2-yl)amino]-7H-pyrrolo[2,3-c]pyridazin-7-yl}-1,3-thiazole-4-carboxylic acid] yielded a Ki in assay [1] of 1100 nM.

Turning to `O=C(O)c1csc(N2CCCc3cc(Nc4nc5ccccc5s4)nnc32)n1` [Example 12, 2-{3-[(1,3-Benzothiazol-2-yl)amino]-5H,6H,7H,8H-pyrido[2,3-c]pyridazin-8-yl}-1,3-thiazole-4-carboxylic acid], the affinity in assay [1] corresponds to a Ki of 30 nM.

`CC1Cc2cc(Nc3nc4ccccc4s3)nnc2N1c1nc(C(=O)O)cs1` (stereo not drawn) [Example 16, 2-{3-[(1,3-Benzothiazol-2-yl)amino]-6-methyl-5H,6H,7H-pyrrolo[2,3-c]pyridazin-7-yl}-1,3-thiazole-4-carboxylic acid] registered a Ki in assay [1] of 120 nM.

`Cc1c(Nc2nccs2)nnc2c1CCN2c1nc(C(=O)O)cs1` [Example 18, 2-{4-Methyl-3-[(1,3-thiazol-2-yl)amino]-5H,6H,7H-pyrrolo[2,3-c]pyridazin-7-yl}-1,3-thiazole-4-carboxylic acid] yielded a Ki in assay [1] of 5000 nM.

`Cc1nc(Nc2nnc3c(c2C)CCN3c2nc(C(=O)O)cs2)sc1C` [Example 19, 2-{3-[(4,5-Dimethyl-1,3-thiazol-2-yl)amino]-4-methyl-5H,6H,7H-pyrrolo[2,3-c]pyridazin-7-yl}-1,3-thiazole-4-carboxylic acid] yielded a Ki in assay [1] of 3300 nM.

`Cc1c(Nc2nc3ccccc3s2)nnc2c1CCCN2c1nc(C(=O)O)c(CCCOc2ccc(CCCCN(C)C)cc2F)s1` [Example 62, 2-{3-[(1,3-Benzothiazol-2-yl)amino]-4-methyl-5H,6H,7H,8H-pyrido[2,3-c]pyridazin-8-yl}-5-(3-{4-[4-(dimethylamino)butyl]-2-fluorophenoxy}propyl)-1,3-thiazole-4-carboxylic acid]: the Ki in assay [2] worked out at 0.0034 nM. In addition, the IC50 came out at 69 nM in the assay on H146 cells and 20.2 nM in the assay on MOLT-4 cells.

With `CNCCc1ccc(OCCCc2sc(N3CCCc4c3nnc(Nc3nc5ccccc5s3)c4C)nc2C(=O)O)c(F)c1` [Example 64, 2-{3-[(1,3-Benzothiazol-2-yl)amino]-4-methyl-5H,6H,7H,8H-pyrido[2,3-c]pyridazin-8-yl}-5-(3-{2-fluoro-4-[2-(methylamino)ethyl]phenoxy}propyl)-1,3-thiazole-4-carboxylic acid], the Ki in assay [2] was determined as 0.0052 nM. For the same molecule, the values for the IC50 with H146 cells and in the assay with MOLT-4 cells were 11.8 nM and 30.5 nM, respectively.

With `CNCCOC1Cc2c(nnc(Nc3nc4ccccc4s3)c2C)N(c2nc(C(=O)O)c(CCCOc3ccc(C#CCN(C)C)cc3F)s2)C1` (stereo not drawn) [Example 65, 2-{3-[(1,3-Benzothiazol-2-yl)amino]-4-methyl-6-[2-(methylamino)ethoxy]-5H,6H,7H,8H-pyrido[2,3-c]pyridazin-8-yl}-5-(3-{4-[3-(dimethylamino)prop-1-yn-1-yl]-2-fluorophenoxy}propyl)-1,3-thiazole-4-carboxylic acid], the inhibitory constant (Ki) in assay [2] was found to be 0.005 nM. For the same molecule, the IC50 in the assay with H146 cells came to 3.98 nM; in the assay with MOLT-4 cells, 26.6 nM.

Turning to `Cc1c(Nc2nc3ccccc3s2)nnc2c1CCCN2c1nc(C(=O)O)c(CCCOc2cc3c(cc2F)CCN(C)C3)s1` [Example 66, 2-{3-[(1,3-Benzothiazol-2-yl)amino]-4-methyl-5H,6H,7H,8H-pyrido[2,3-c]pyridazin-8-yl}-5-{3-[(6-fluoro-2-methyl-1,2,3,4-tetrahydroisoquinolin-7-yl)oxy]propyl}-1,3-thiazole-4-carboxylic acid], the Ki in assay [2] stood at 0.012 nM. In addition, the IC50 turned out to be 8.22 nM with H146 cells and 2.01 nM in the assay on MOLT-4 cells.

Turning to `Cc1c(Nc2nc3ccccc3s2)nnc2c1CCCN2c1nc(C(=O)O)c(CCCOc2ccc(CCCN3CCC3)cc2F)s1` [Example 67, 5-[3-[4-[3-(Azetidin-1-yl)propyl]-2-fluoro-phenoxy]propyl]-2-[3-(1,3-benzothiazol-2-ylamino)-4-methyl-6,7-dihydro-5H-pyrido[2,3-c]pyridazin-8-yl]thiazole-4-carboxylic acid], the Ki in assay [2] turned out to be 0.0032 nM. Moreover, the figures for the IC50 in the assay on H146 cells and with MOLT-4 cells were 14.6 nM and 7.4 nM, respectively.

As to `Cc1c(Nc2nc3ccccc3s2)nnc2c1CCCN2c1nc(C(=O)O)c(CCCOc2ccc(CCCN3CCN(C)CC3)cc2F)s1` [Example 68, 2-[3-(1,3-Benzothiazol-2-ylamino)-4-methyl-6,7-dihydro-5H-pyrido[2,3-c]pyridazin-8-yl]-5-[3-[2-fluoro-4-[3-(4-methylpiperazin-1-yl)propyl]phenoxy]propyl]thiazole-4-carboxylic acid], the Ki in assay [2] is 0.0038 nM. For the same molecule, the results for the IC50 with H146 cells and in the assay on MOLT-4 cells were 10.4 nM and 2.91 nM, respectively.

Regarding `Cc1c(Nc2nc3ccccc3s2)nnc2c1CCCN2c1nc(C(=O)O)c(CCCOc2ccc(CCCN3CCOCC3)cc2F)s1` [Example 70, 2-[3-(1,3-Benzothiazol-2-ylamino)-4-methyl-6,7-dihydro-5H-pyrido[2,3-c]pyridazin-8-yl]-5-[3-[2-fluoro-4-(3-morpholinopropyl)phenoxy]propyl]thiazole-4-carboxylic acid], the Ki in assay [2] amounted to 0.017 nM. For the same molecule, the IC50 in the assay with H146 cells is 16.9 nM; in the assay on MOLT-4 cells, 3.08 nM.

Take `Cc1c(Nc2nc3ccccc3s2)nnc2c1CCCN2c1nc(C(=O)O)c(CCCOc2ccc(CCCN3CCCCC3)cc2F)s1` [Example 71, 2-[3-(1,3-Benzothiazol-2-ylamino)-4-methyl-6,7-dihydro-5H-pyrido[2,3-c]pyridazin-8-yl]-5-[3-[2-fluoro-4-[3-(1-piperidyl)propyl]phenoxy]propyl]thiazole-4-carboxylic acid]: the Ki in assay [2] came out at 0.0045 nM. For the same molecule, the IC50 with H146 cells was 9.3 nM; in the assay with MOLT-4 cells, 2.11 nM.

Consider `Cc1c(Nc2nc3ccccc3s2)nnc2c1CCCN2c1nc(C(=O)O)c(CCCOc2ccc(CCCN3CCC4(CC3)CNC(=O)C4)cc2F)s1` [Example 73, 2-[3-(1,3-Benzothiazol-2-ylamino)-4-methyl-6,7-dihydro-5H-pyrido[2,3-c]pyridazin-8-yl]-5-[3-[2-fluoro-4-[3-(3-oxo-2,8-diazaspiro[4.5]decan-8-yl)propyl]phenoxy]propyl]thiazole-4-carboxylic acid], for which the Ki in assay [2] was 0.0025 nM. For the same molecule, the IC50 came to 14.7 nM with H146 cells and 6.54 nM in the assay with MOLT-4 cells.

The values above are taken from patent publication US12570648B2, “6,7-dihydro-5H-pyrido[2,3-c]pyridazine derivatives and related compounds as Bcl-xL protein inhibitors and pro-apoptotic agents for treating cancer” (LES LABORATOIRES SERVIER, priority 2019, dated 2026).
